Measurements: US20160297830A1, “NOVEL COMPOUNDS USEFUL FOR THE TREATMENT OF BACTERIAL INFECTIOUS DISEASES” (GALAPAGOS NV, priority 2013, published 2016)
In brackets after ≈: the same amount, converted by molar mass. Like-named read-outs stand apart in the source and are kept apart here.

What was measured:
[1] = test system: Methicillin Resistant S. aureus Sa2 (MRSA); test: animal or person; format: in vivo
[2] = test system: Methicillin Resistant S. aureus Sa2 (MRSA); format: in vivo; conditions: Groin Sa, sample time 31 h post infection
[3] = test system: Methicillin Resistant S. aureus (MRSA); test: Neutropenic mouse thigh infection model; conditions: Thigh Sa
[4] = test system: H. influenza Hi47 clinical strain, Ampicillin Resistant; test: organism not typed; format: cell-based; conditions: read-out: MIC Hi47
[5] = test system: E. coli Ec1 ATCC 25922; test: Antibacterial activity assay (MIC), E. coli Ec1; format: cell-based; conditions: Escherichia coli
[6] = test system: S. aureus Sa2 clinical strain NCIMB 41953, MRSA; test: microbe, parasite or virus in culture; format: cell-based; conditions: Staphylococcus aureus, read-out: MIC Sa2
[7] = test system: S. aureus Sa26 ATCC 25923; test: Antibacterial activity assay (MIC), S. aureus Sa26; format: cell-based; conditions: Staphylococcus aureus
[8] = target: DNA III Polymerase E (Escherichia coli, UniProt P10443); test: In vitro activity against DNA III Polymerase E, E. coli; format: biochemical
Chain of DNA III Polymerase E (P10443 whole entry): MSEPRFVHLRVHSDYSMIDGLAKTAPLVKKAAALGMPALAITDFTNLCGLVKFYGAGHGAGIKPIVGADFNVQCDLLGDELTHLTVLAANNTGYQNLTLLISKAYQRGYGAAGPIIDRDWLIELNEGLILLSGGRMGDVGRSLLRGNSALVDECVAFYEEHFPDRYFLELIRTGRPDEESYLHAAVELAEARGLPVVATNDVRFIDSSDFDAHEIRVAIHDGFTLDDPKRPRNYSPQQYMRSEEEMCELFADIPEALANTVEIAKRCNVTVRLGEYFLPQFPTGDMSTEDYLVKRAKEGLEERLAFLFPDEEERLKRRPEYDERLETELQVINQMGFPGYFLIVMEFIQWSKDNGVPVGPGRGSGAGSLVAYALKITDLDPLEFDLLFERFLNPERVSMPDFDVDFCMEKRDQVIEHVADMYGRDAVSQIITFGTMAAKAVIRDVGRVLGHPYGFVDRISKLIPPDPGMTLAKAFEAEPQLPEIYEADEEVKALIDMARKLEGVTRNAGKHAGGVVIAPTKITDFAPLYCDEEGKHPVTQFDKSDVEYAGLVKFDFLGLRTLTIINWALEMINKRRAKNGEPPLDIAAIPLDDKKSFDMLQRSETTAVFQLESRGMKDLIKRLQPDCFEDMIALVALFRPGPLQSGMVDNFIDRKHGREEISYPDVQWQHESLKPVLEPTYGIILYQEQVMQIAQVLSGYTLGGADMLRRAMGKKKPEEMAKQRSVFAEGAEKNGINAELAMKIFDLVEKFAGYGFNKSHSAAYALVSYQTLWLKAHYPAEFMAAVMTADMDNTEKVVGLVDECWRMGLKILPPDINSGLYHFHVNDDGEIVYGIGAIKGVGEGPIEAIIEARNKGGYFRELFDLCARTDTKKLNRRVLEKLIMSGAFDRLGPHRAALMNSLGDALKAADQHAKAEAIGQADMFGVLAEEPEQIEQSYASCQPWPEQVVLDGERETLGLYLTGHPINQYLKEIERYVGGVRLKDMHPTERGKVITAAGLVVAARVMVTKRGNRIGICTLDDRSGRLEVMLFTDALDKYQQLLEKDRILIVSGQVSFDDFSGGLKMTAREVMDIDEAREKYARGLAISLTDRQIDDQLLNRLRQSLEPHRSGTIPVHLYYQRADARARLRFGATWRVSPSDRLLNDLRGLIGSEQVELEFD
Procedure, shortened: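 Recombinant enzyme (0.47 μg/mL diluted stock) in 20 mM Tris pH7.5, 8 mM DTT, 10 mM MgOAc, 0.05% CHAPS met compound series from 100 μM top, 1/5 steps. Activated calf thymus DNA, dNTPs and [α-33P]-dTTP substrate were added, and incubation ran 120 min at 30° C. IC50 came from filter-captured incorporated radioactivity versus controls.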

[9] = test system: E. coli Ec113 efflux pump KO; test: microbe, parasite or virus in culture; format: cell-based; conditions: Escherichia coli, read-out: MIC Ec113 efflux pump KO
[10] = test system: S. aureus Sa4 NCTC 6571; test: Antibacterial activity assay (MIC), S. aureus Sa4; format: cell-based; conditions: Staphylococcus aureus
[11] = test system: H. influenza Hi3 ATCC 31517; test: organism not typed; format: cell-based; conditions: read-out: MIC Hi3
[12] = test system: H. influenza Hi10 clinical strain; test: organism not typed; format: cell-based; conditions: read-out: MIC Hi10
[13] = test system: E. coli Ec50 efflux pump KO; test: microbe, parasite or virus in culture; format: cell-based; conditions: Escherichia coli, read-out: MIC Ec50 efflux pump KO
[14] = test system: S. aureus Sa1 ATCC 13709; test: microbe, parasite or virus in culture; format: cell-based; conditions: Staphylococcus aureus
[15] = target: DNA Polymerase IIIα (DnaE) from Staphylococcus aureus (Staphylococcus aureus, UniProt Q6GG04); test: biochemical
Chain of DNA Polymerase IIIα (DnaE) from Staphylococcus aureus (Q6GG04 1-1022): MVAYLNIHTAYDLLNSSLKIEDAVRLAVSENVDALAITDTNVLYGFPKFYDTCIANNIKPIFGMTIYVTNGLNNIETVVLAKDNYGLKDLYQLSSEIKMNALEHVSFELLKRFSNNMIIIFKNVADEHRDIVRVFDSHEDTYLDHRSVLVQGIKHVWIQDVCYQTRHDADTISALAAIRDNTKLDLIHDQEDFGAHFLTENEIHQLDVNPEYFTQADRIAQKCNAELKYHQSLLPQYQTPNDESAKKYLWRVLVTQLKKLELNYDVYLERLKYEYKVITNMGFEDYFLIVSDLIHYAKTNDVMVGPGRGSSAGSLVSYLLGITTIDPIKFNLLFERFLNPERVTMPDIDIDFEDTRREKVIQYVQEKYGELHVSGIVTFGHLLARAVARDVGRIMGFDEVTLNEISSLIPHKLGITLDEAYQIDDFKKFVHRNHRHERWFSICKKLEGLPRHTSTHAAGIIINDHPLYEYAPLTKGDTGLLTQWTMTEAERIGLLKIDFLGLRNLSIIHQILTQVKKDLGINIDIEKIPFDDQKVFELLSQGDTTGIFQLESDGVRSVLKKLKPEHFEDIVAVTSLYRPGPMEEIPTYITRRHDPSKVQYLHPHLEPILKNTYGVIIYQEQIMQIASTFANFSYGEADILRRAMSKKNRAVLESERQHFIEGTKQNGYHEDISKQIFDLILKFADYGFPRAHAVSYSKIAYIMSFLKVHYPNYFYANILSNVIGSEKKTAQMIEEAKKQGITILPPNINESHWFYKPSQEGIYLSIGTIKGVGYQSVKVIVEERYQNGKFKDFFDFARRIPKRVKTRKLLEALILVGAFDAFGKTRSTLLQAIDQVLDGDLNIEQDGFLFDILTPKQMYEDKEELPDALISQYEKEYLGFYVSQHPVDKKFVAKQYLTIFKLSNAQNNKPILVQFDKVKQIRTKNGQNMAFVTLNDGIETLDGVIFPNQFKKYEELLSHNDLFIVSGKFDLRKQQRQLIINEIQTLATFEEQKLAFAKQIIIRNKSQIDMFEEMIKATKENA

[16] = test system: H. influenza Hi106 ATCC 51907; test: organism not typed; format: cell-based; conditions: read-out: MIC Hi106
[17] = Study 1, 50 mg/kg SC BID, sample time 7 h PI
[18] = Study 2, 50 mg/kg SC BID, sample time 7 h PI
[19] = Study 3, 50 mg/kg SC BID, sample time 7 h PI
[20] = Study 4, 15 mg/kg SC BID, sample time 24 h PI
[21] = Study 5, 50 mg/kg SC BID, sample time 24 h PI
[22] = Study 8, 50 mg/kg SC QD, sample time 48 h PI
[23] = DNA polymerase III, E. coli, read-out: IC50 semiquantitative scoring, E. coli
[24] = Study 5, 5 mg/kg IP BID, sample time 24 h PI
[25] = Study 5, 15 mg/kg IP BID, sample time 24 h PI
[26] = Study 5, 50 mg/kg IP BID, sample time 24 h PI
[27] = Study 5, 200 mg/kg PO BID, sample time 24 h PI
[28] = Study 6, 50 mg/kg PO BID, sample time 24 h PI
[29] = Study 6, 100 mg/kg PO BID, sample time 24 h PI
[30] = ATCC25922, E. coli Ec1 ATCC 25922, sensitive strain, read-out: MIC Ec1
[31] = Staphylococcus aureus, MRSA, in Mus musculus, po, 24 h, read-out: Log reduction vs. untreated, Study 3, 50 mg/kg PO BID, sample 24 h post infection, lung
[32] = Study 3, 50 mg/kg PO BID, sample 24 h post infection, lung
[33] = ATCC25923, read-out: MIC Sa26 + 10% SH, S. aureus Sa26 + 10% SH
[34] = ATCC25923, read-out: MIC Sa26 + 50% SH, S. aureus Sa26 + 50% SH
[35] = ATCC25923, S. aureus Sa26 ATCC 25923, sensitive strain, Mueller-Hinton Broth, 37° C., read-out: MIC Sa26
[36] = NCTC6571, S. aureus Sa4 NCTC 6571, sensitive strain, read-out: MIC Sa4
[37] = ATCC13709, S. aureus Sa1 ATCC 13709, sensitive strain, Mueller-Hinton Broth, 37° C., read-out: MIC Sa1
[38] = Study 9, 50 mg/kg PO BID, sample time 24 h PI
[39] = Study 1, 50 mg/kg PO BID, sample 24 h post infection, lung

CN[C@H](CC(C)C)C(=O)N[C@H]1C(=O)N[C@@H](CC(N)=O)C(=O)N[C@H]2C(=O)N[C@H]3C(=O)N[C@H](C(=O)N[C@H](C(=O)O)c4cc(O)cc(O)c4-c4cc3ccc4O)[C@H](O)c3ccc(c(Cl)c3)Oc3cc2cc(c3O[C@@H]2O[C@H](CO)[C@@H](O)[C@H](O)[C@H]2O[C@H]2C[C@](C)(N)[C@H](O)[C@H](C)O2)Oc2ccc(cc2Cl)[C@H]1O [Vancomycin]
log reduction at 50 mg/kg ([1]; Staphylococcus aureus, MRSA, in Mus musculus, sc, 24 h, read-out: Log reduction vs. untreated): 2 | Active ([1]; Study 1, 50 mg/kg SC BID, sample 24 h post infection, lung): Y | Active ([2]; Study 1, 50 mg/kg SC BID): Y | Log reduction vs. untreated ([2]; Study 1, 50 mg/kg SC BID): −3.59 | Active [3, 17]: Y | Log reduction vs. untreated [3, 17]: −4.01 | Active [3, 18]: Y | Log reduction vs. untreated [3, 18]: −2.57 | Active [3, 19]: Y | Log reduction vs. untreated [3, 19]: −1.52 | Active [3, 20]: Y | Log reduction vs. untreated [3, 20]: −3.96 | Active [3, 21]: Y | Log reduction vs. untreated [3, 21]: −4.27 | Active [3, 22]: Y | Log reduction vs. untreated [3, 22]: −3.2

CO[C@H]1C[C@H]2C=C[C@H]3[C@H]4O[C@]2(/C(C)=C/[C@@H](C)[C@@H]([C@@H](C)O)OC1=O)[C@@H]3[C@H](O)[C@@H](C)[C@H]4OC(=O)c1ccc[nH]1 [Nargenicin A1, reference compound]
MIC [4]: 64 µg/mL (≈ 124 µM) | MIC ([5]; ATCC25922, read-out: MIC Ec1): > 64 µg/mL | MIC [6]: 0.125 µg/mL (≈ 0.242 µM) | log reduction at 12.5 mg/kg ([1]; Staphylococcus aureus, MRSA, in Mus musculus, po, 24 h, read-out: Log reduction vs. untreated, Study 4, 12.5 mg/kg PO BID, sample 24 h post infection, lung): 0.39 | log reduction at 25 mg/kg ([1]; Staphylococcus aureus, MRSA, in Mus musculus, po, 24 h, read-out: Log reduction vs. untreated, Study 4, 25 mg/kg PO BID, sample 24 h post infection, lung): 2.17 | log reduction at 50 mg/kg ([1]; Staphylococcus aureus, MRSA, in Mus musculus, po, 24 h, read-out: Log reduction vs. untreated, Study 4, 50 mg/kg PO BID, sample 24 h post infection, lung): 2.57 | Active ([1]; Study 4, 12.5 mg/kg PO BID, sample 24 h post infection, lung): N | Active ([1]; Study 4, 25 mg/kg PO BID, sample 24 h post infection, lung): Y | Active ([1]; Study 4, 50 mg/kg PO BID, sample 24 h post infection, lung): Y | MIC ([7]; ATCC25923, read-out: MIC Sa26): 0.25 µg/mL (≈ 0.485 µM) | MIC ([7]; ATCC25923, read-out: MIC Sa26 + 10% SH): 0.5 µg/mL | MIC ([7]; ATCC25923, read-out: MIC Sa26 + 50% SH): 0.5 µg/mL | IC50 [8, 23]: 1.94 to 1940 nM | MIC [9]: ≤ 0.06 µg/mL | MIC ([10]; NCTC6571, read-out: MIC Sa4): ≤ 0.06 µg/mL | MIC [11]: 64 µg/mL (≈ 124 µM) | MIC [12]: 32 µg/mL (≈ 62.1 µM) | MIC [13]: 2 µg/mL (≈ 3.88 µM) | MIC ([14]; ATCC13709, read-out: MIC Sa1): 0.125 µg/mL (≈ 0.242 µM) | Active ([2]; Study 1, 50 mg/kg IP BID): Y | Log reduction vs. untreated ([2]; Study 1, 50 mg/kg IP BID): −3.13 | Active ([2]; Study 1, 50 mg/kg PO BID): N | Log reduction vs. untreated ([2]; Study 1, 50 mg/kg PO BID): −1.11 | Active [3, 19]: Y | Log reduction vs. untreated [3, 19]: −4.52 | Active [3, 24]: N | Log reduction vs. untreated [3, 24]: 0.28 | Active [3, 25]: N | Log reduction vs. untreated [3, 25]: −0.55 | Active [3, 26]: Y | Log reduction vs. untreated [3, 26]: −5.40 | Active [3, 21]: Y | Log reduction vs. untreated [3, 21]: −3.28 | Active [3, 27]: Y | Log reduction vs. untreated [3, 27]: −4.47 | Active [3, 28]: Y | Log reduction vs. untreated [3, 28]: −2.02 | Active [3, 29]: Y | Log reduction vs. untreated [3, 29]: −4.06 | IC50 [15]: 1.94 to 1940 nM | MIC [16]: 32 µg/mL (≈ 62.1 µM)

COC[C@@H]1[C@@H](O)[C@@H]2[C@H]3C=C[C@@H]4[C@@H](COC)C(=O)O[C@H]([C@H](O)COC)[C@H](C)/C=C(\C)[C@@]24O[C@H]3[C@@H]1OC(=O)c1cc(F)c[nH]1 [Compound 19, 8-O-4-Fluoro-1H-pyrrole-2′-carbonylbranimycin]
MIC [4]: > 64 µg/mL | MIC [5, 30]: > 64 µg/mL | MIC [6]: 0.5 µg/mL (≈ 0.842 µM) | log reduction at 50 mg/kg [1, 31]: 3.56 | log reduction at 25 mg/kg ([1]; Staphylococcus aureus, MRSA, in Mus musculus, po, 72 h, read-out: Log reduction vs. untreated, Study 6, 25 mg/kg PO QD, sample 72 h post infection, lung): 3.65 | Active [1, 32]: Y | Active ([1]; Study 6, 25 mg/kg PO QD, sample 72 h post infection, lung): Y | MIC [7, 33]: 0.5 µg/mL | MIC [7, 34]: 1 µg/mL | MIC [7, 35]: 0.5 µg/mL (≈ 0.842 µM) | IC50 [8]: 1680 to 16800 nM | MIC [9]: 0.5 µg/mL (≈ 0.842 µM) | MIC [10, 36]: 0.25 µg/mL (≈ 0.421 µM) | MIC [11]: > 64 µg/mL | MIC [12]: > 64 µg/mL | MIC [13]: 64 µg/mL (≈ 108 µM) | MIC [14, 37]: 0.5 µg/mL (≈ 0.842 µM) | Active [3, 38]: Y | Log reduction vs. untreated [3, 38]: −3.28 | IC50 [15]: 1.68 to 1680 nM | MIC [16]: > 64 µg/mL

COCC(=NO)[C@H]1OC(=O)[C@H](COC)[C@H]2C=C[C@H]3[C@H]4O[C@]2(/C(C)=C/[C@H]1C)[C@@H]3[C@H](O)[C@@H](COC)[C@H]4OC(=O)c1ccc[nH]1 [Compound 25, 18-Deoxy-18-oximino-8-O-1H-pyrrole-2′-carbonylbranimycin]
MIC [4]: > 64 µg/mL | MIC [5, 30]: > 64 µg/mL | MIC [6]: ≤ 0.06 µg/mL | log reduction at 50 mg/kg ([1]; Staphylococcus aureus, MRSA, in Mus musculus, Study 1, 50 mg/kg PO BID, sample 24 h post infection, lung, read-out: Log reduction vs. untreated): 0.36 | Active [1, 39]: N | MIC [7, 33]: 0.5 µg/mL | MIC [7, 34]: 1 µg/mL | MIC [7, 35]: 0.5 µg/mL (≈ 0.849 µM) | IC50 [8, 23]: 1700 to 17000 nM | MIC [9]: 0.25 µg/mL (≈ 0.425 µM) | MIC [10, 36]: 0.25 µg/mL (≈ 0.425 µM) | MIC [11]: > 64 µg/mL | MIC [12]: > 64 µg/mL | MIC [13]: 0.5 µg/mL (≈ 0.849 µM) | MIC [14, 37]: 0.25 µg/mL (≈ 0.425 µM) | IC50 [15]: 1.7 to 1700 nM | MIC [16]: > 64 µg/mL

C[C@H]1COc2c(N3CCN(C)CC3)c(F)cc3c(=O)c(C(=O)O)cn1c23 [Levofloxacin, reference compound]
log reduction at 50 mg/kg ([1]; Staphylococcus aureus, MRSA, in Mus musculus, po, 24 h, read-out: Log reduction vs. untreated, Study 1, 50 mg/kg PO BID, sample 24 h post infection, lung): 0.32 | log reduction at 50 mg/kg ([1]; Staphylococcus aureus, MRSA, in Mus musculus, po, 24 h, read-out: Log reduction vs. untreated, Study 2, 50 mg/kg PO BID, sample 24 h post infection, lung): 0.55 | log reduction at 50 mg/kg [1, 31]: -1.17 | Active [1, 39]: N | Active ([1]; Study 2, 50 mg/kg PO BID, sample 24 h post infection, lung): N | Active [1, 32]: N | Active ([2]; Study 2, 50 mg/kg PO BID): N | Log reduction vs. untreated ([2]; Study 2, 50 mg/kg PO BID): −1.00
